According to ChEMBL document CHEMBL5385852, “Structural optimization and biological evaluation of 1-adamantylcarbonyl-4-phenylpiperazine derivatives as FXR agonists for NAFLD” (Eur J Med Chem, 2023):
The source made the active and inactive calls. The calls are words filed in the database; no cut-off is given here.

Columns and labels:
[1] = system: Mus musculus; test: Anti-hyperlipidemic activity in high fat diet induced obese C57BL/6J mouse model assessed as improvement in insulin sensitivity at 200 mg/kg by insulin tolerance test; type: functional, organism-based
[2] = system: Mus musculus; test: Anti-hyperlipidemic activity in high fat diet induced obese C57BL/6J mouse model assessed as decrease in hepatic triglyceride level at 200 mg/kg; type: functional, organism-based
[3] = system: Mus musculus; test: Anti-hyperlipidemic activity in high fat diet induced obese C57BL/6J mouse model assessed as decrease in hepatic total cholesterol level at 200 mg/kg; type: functional, organism-based
[4] = system: Mus musculus; test: Anti-hyperlipidemic activity in high fat diet induced obese C57BL/6J mouse model assessed as decrease in total cholesterol level at 200 mg/kg; type: functional, organism-based
[5] = system: Mus musculus; test: Anti-hyperlipidemic activity in high fat diet induced obese C57BL/6J mouse model assessed as decrease in hepatic low density lipoprotein cholesterol level at 200 mg/kg; type: functional, organism-based
[6] = target: T1, Bile acid receptor (Homo sapiens, UniProt Q96RI1); test: Agonist activity at Gal4-fused FXR LBD (unknown origin) transfected in HEK293T cells co-transfected with Peak12-Gal4UAS-luciferase reporter assessed as receptor transactivation incubated for 24 hrs by firefly luciferase assay; type: cell-based
T1 sequence (Q96RI1 whole entry): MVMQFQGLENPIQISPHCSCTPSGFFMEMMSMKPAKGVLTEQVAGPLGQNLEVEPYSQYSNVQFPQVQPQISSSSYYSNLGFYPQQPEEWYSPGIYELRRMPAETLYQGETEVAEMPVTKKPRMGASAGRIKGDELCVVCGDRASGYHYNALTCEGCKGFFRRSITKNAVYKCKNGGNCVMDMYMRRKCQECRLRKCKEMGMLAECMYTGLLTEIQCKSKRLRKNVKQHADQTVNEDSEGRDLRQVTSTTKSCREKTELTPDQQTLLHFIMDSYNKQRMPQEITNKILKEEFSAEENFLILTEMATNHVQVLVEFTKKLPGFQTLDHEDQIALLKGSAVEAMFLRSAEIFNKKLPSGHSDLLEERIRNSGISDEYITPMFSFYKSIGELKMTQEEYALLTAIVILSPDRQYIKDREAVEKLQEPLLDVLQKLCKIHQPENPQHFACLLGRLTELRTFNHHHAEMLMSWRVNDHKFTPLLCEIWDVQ

Row | SMILES | Activity [1] | Activity [2] | Activity [3] | Activity [4] | Activity [5] | EC50 [6] [nM]
1 | Cc1ccc(Cl)cc1N1CCN(C(=O)C23CC4CC(CC(C4)C2)C3)CC1 | inactive | Active | inactive | inactive | inactive | 
2 | O=C(N1CCN(c2cc(Cl)ccc2O)CC1)C12CC3CC(CC(C3)C1)C2 |  |  |  |  |  | 2140
